From patent US20130164338A1 (priority 2010, published 2013)

Test system: S. pneumoniae (Serotype 3; ATCC 6303)
Assay: S. pneumoniae mouse pneumonia model, nebulized salt formulations
Assay type: in vivo, C57BL/6 mice
Details: nebulized 2 h before infection; ~0.72 mg Ca/kg, ampicillin ~3 mg/kg

CC1(C)S[C@@H]2[C@H](NC(=O)[C@H](N)c3ccccc3)C(=O)N2[C@H]1C(=O)O [ampicillin]
reduction of bacterial titers in lungs relative to saline control: 33 fold
